Reference: patent publication US8092829B2, “Use of R-arylpropionic acids for treating illnesses with a rheumatic nature” (Paz Arzneimittelentwicklungsgesellschaft mbH, priority 2000, dated 2012)

Tested on: AP-1
Test: Inhibition of AP-1 activation (AP-1 DNA binding activity by EMSA) in LPS-stimulated RAW 264-7 macrophages
Assay type: cell-based, murine
Settings: LPS-stimulated RAW 264-7 cells, nuclear extract; for AP-1 DNA binding at the highest concentration: 1000 μM (tested 0.1-1000 μM)
Procedure: The inhibition of the activation of AP-1 was shown with a pharmacological model. For this purpose, a cell culture of the murine macrophage cell line RAW 264-7 was taken and stimulated with 10 mg/ml LPS for 1 hour in the absence or in the presence of flurbiprofen. R-flurbiprofen (0.1, 1, 10, 100 and 1000 μM) and S-flurbiprofen (0.1, 1, 10, 100 and 1000 μM) were dissolved in phosphate buffer, added to the cell cultures 30 minutes before the LPS treatment. After conclusion of the treatment, the cells were harvested and worked up in a cytosol fraction and a cell nucleus extract. The cell nucleus extract ([…]) was incubated for 30 minutes with the AP-1-specific oligonucleotide 5′-CGCTT GATGACTCAGCCGGAA-3′ which is terminally labelled with ^32P ATP. From the incubation medium was separated the nucleus protein DNA complexes from the non-bound DNA by electro-phoresis (electrophoretic mobile shift assay EMSA). After drying of the gels, these were visualised by means of autoradiography.

SMILES | AP-1 DNA binding at the highest concentration | inhibition of AP-1 DNA binding (10-1000 μM, added 30 minutes before LPS)
C[C@@H](C(=O)O)c1ccc(-c2ccccc2)c(F)c1 [R-flurbiprofen] | completely suppressed | inhibits the AP-1 DNA binding dosage-dependent
C[C@H](C(=O)O)c1ccc(-c2ccccc2)c(F)c1 [S-flurbiprofen, reference compound] | a reduction was found only in the case of the highest concentration | –
